The source of these data is patent publication US11617369B2, “Antimicrobial gallium compounds and methods” (The Board of Supervisors of Louisiana State University and …, priority 2018, dated 2023).

The conditions of series [1]: cited from earlier work.
Series [2] can be described thus: Stability of aqueous gallium complex solutions with pH. It counts as physicochemical. Particulars: solution of 2×10^−3 M.
Series [3] has as its system Streptococcus mutans. Description: Antibacterial activity by optical density of cultures with serial dilution of the compounds. It counts as cell-based. Particulars: pH 5.9, 18 hours. The protocol:
(§1) The antibacterial activities of three complexes against six oral bacteria at pH 5.9 were tested by measuring the optical density (OD, at 600 nm) of the cultures in […] of different bacteria with the presence of serial dilution of the compounds (10^−2M-7.81×10^−5M) after culture at 5% CO2 under 37° C. for 18 hours. The midpoint concentration (IC 50) was determined at the concentration that corresponds to 50% of maximum OD. The minimum inhibition concentration (MIC) was determined at the concentration that corresponds to 10% or less of OD of the control (without any gallium compound).

The subject of series [4] is Streptococcus pneuomoniae. The description is as above. It counts as cell-based. Particulars: pH 5.9, 18 hours. On the procedure:
as §1

Series [5] deals with Lactobacillus casei. The series is described as above. In kind it is cell-based. The conditions noted are these: pH 5.9, 18 hours. On the procedure: as §1
Series [6] deals with Pseudomonas aeruginosa. The series is described as above. Particulars: pH 5.9, 18 hours. In kind it is cell-based. On the procedure: as §1
For series [7], the system named is Streptococcus sobrinus. The series is described as above. It counts as cell-based. Particulars: pH 5.9, 18 hours. The protocol:
as §1

Series [8] concerns Actinomyces naeslundii. Described as above. It counts as cell-based. The conditions noted are these: pH 5.9, 18 hours. On the procedure: as §1
A short description of series [9]: Gallium release from composite discs, spectrophotometric method. Particulars: 15% chelate in the monomer; deionized water pH=7.0; 4 days (FIG. 13).
Where [10] appears, read: 37° C., 5% CO2, OD at 600 nm, read-out: Midpoint concentration (IC50).
[11] abbreviates: 10% or less of OD of the control.

Entries after “also recorded” stand apart in the source; their conditions may differ.

As to `[Ga+3].[Ga+3].[O-2].[O-2].[O-2]` [Ga2O3, gallium oxide], the “solubility in water (words)” value in series [1] is “insoluble in water”.

On to `[Ga+3].[OH-].[OH-].[OH-]` [Ga(OH)3], for which the “solubility in water (words)” value in series [1] is recorded as “sparingly soluble; also recorded: low solubility in water”. In [1] (in water), the “Ksp=[Ga^3+][OH^−]^3” value is 3.28×10^−36.

As to `[F][Ga]([F])[F]` [GaF3, gallium trifluoride], in series [1], the solubility in water was 15.8 µM and the “solubility in water (words)” value is “sparingly soluble”.

Consider `[F][Ga-2]([F])([F])([F])[F].[Na+].[Na+]` [Na2GaF5], for which, in series [2], the “pH up to which the solution is stable” value was not above 5.9. Besides, the IC50 in series [3] (setting [10]) was 1250 µM; in series [4] (setting [10]), 1880 µM; in [5] (setting [10]) it was more than 5000 µM; in series [6] (setting [10]) it was more than 1880 µM; in series [7] (setting [10]), 1250 µM; in series [8] (setting [10]) it was 1880 µM. Further, the “Minimum Inhibition Concentration (MIC)” value is 2500 µM in series [3] (setting [11]); 5000 µM in series [4] (setting [11]); >10^−2M in series [5] (setting [11]); 50 µM in series [6] (setting [11]); 5000 µM in series [7] (setting [11]); 2500 µM in series [8] (setting [11]).

Regarding `C=C(C)C(=O)OCCOc1ccc(C(C)(CCC(=O)NCCCCC(C(=O)[O-])N(CC(=O)[O-])CC(=O)O)c2ccc(OCCOC(=O)C(=C)C)cc2)cc1.F.[F-].[Ga+3]` (stereo not shown) [ternary gallium fluoride chelate, monogallium(III) mono(2,2′-((5-(4,4-bis(4-(2-(methacryloyloxy)ethoxy)phenyl)pentanamido)-1-carboxylatopentyl)azanediyl)diacetate) monofluoride hydrofluoride], the “amount of gallium ion released compared with those without the chelate” value in [9] was “nearly double”.
